Results: PMC7708056 (2020)
Values belong to the compound of their own block, whether it stands above or below them.

How the values were obtained:
[1] = tested on: 18GAAA-D1 G23A/C37U (RNA, riboswitch) GGCUUCAACAACCCCGUAGGUGAGGACGAAAGUCAGUGCACCUACUGGAGCC; assay: ITC; settings: 50 mM NaCl, 10 mM MgCl2; 50 mM HEPES pH 7.0, 25 °C; 2 mM ligand stock titrated into 0.1 mM RNA
[2] = tested on: G36A/G38A/A11Ap domain 1 (RNA, riboswitch, 2-aminopurine at 11) GGCUUCAACAACCCCGUAGGUGGGGACGAAAGUCAACACACCUACUGGAGCC; assay: 2-aminopurine fluorescence
[3] = tested on: 18GAAA-D1 C13U/C14U/G36A/G38A (RNA, riboswitch) GGCUUCAACAACUUCGUAGGUGGGGACGAAAGUCAACACACCUACUGGAGCC; assay: ITC; settings: 50 mM NaCl, 10 mM MgCl2; 50 mM HEPES pH 7.0, 25 °C; 2 mM ligand stock titrated into 0.1 mM RNA
[4] = tested on: 18GAAA-D1 A10C (RNA, riboswitch) GGCUUCAACCACCCCGUAGGUGGGGACGAAAGUCAGCGCACCUACUGGAGCC; assay: ITC; settings: 50 mM NaCl, 10 mM MgCl2; 50 mM HEPES pH 7.0, 25 °C; 2 mM ligand stock titrated into 0.1 mM RNA
[5] = tested on: 18GAAA-D1 A8G (RNA, riboswitch) GGCUUCAGCAACCCCGUAGGUGGGGACGAAAGUCAGCGCACCUACUGGAGCC; assay: ITC; settings: 50 mM NaCl, 10 mM MgCl2; 50 mM HEPES pH 7.0, 25 °C; 2 mM ligand stock titrated into 0.1 mM RNA
[6] = tested on: 18GAAA-D1 C6U/G47A (RNA, riboswitch) GGCUUUAACAACCCCGUAGGUGGGGACGAAAGUCAGCGCACCUACUAGAGCC; assay: ITC; settings: 50 mM NaCl, 10 mM MgCl2; 50 mM HEPES pH 7.0, 25 °C; 2 mM ligand stock titrated into 0.1 mM RNA
[7] = tested on: A11Ap domain 1 (RNA, riboswitch, 2-aminopurine at 11) GGCUUCAACAACCCCGUAGGUGGGGACGAAAGUCAGCGCACCUACUGGAGCC; assay: 2-aminopurine fluorescence, real time; settings: 100 mM KCl, 50 mM MgCl2; 50 mM KMOPS pH 7.5, 20 °C, 0.5 μM RNA, 0.3 mM ligand
[8] = tested on: 832GAAA-D2 (NAD+ riboswitch domain 2) (RNA, riboswitch) GGUUUCAACAUCCCCGUUCGGCGCUCGAAAGAGGUGGCCGGACUGAAGCC; assay: X-ray crystallography, 2.1 Å; settings: Mg2+
[9] = tested on: 17delU1A-D1 (NAD+ riboswitch domain 1) (RNA, riboswitch) GGCGCAACAUCCCCGCCGGUUGGGCGCAUUGCACUCCGCGCAGUGAACCGGCUGCGCC; assay: X-ray crystallography, 2.80 Å; settings: Mg2+; co-crystallised with U1A protein
[10] = tested on: 18GAAA-D1 C13G/G38C (RNA, riboswitch) GGCUUCAACAACGCCGUAGGUGGGGACGAAAGUCAGCCCACCUACUGGAGCC; assay: ITC; settings: 50 mM NaCl, 10 mM MgCl2; 50 mM HEPES pH 7.0, 25 °C; 2 mM ligand stock titrated into 0.1 mM RNA
[11] = tested on: 18GAAA-D1 C14G/G36C (RNA, riboswitch) GGCUUCAACAACCGCGUAGGUGGGGACGAAAGUCACCGCACCUACUGGAGCC; assay: ITC; settings: 50 mM NaCl, 10 mM MgCl2; 50 mM HEPES pH 7.0, 25 °C; 2 mM ligand stock titrated into 0.1 mM RNA
[12] = tested on: 18GAAA-D1 A10G (RNA, riboswitch) GGCUUCAACGACCCCGUAGGUGGGGACGAAAGUCAGCGCACCUACUGGAGCC; assay: ITC; settings: 50 mM NaCl, 10 mM MgCl2; 50 mM HEPES pH 7.0, 25 °C; 2 mM ligand stock titrated into 0.1 mM RNA
[13] = tested on: 18GAAA-D1 A8U (RNA, riboswitch) GGCUUCAUCAACCCCGUAGGUGGGGACGAAAGUCAGCGCACCUACUGGAGCC; assay: ITC; settings: 50 mM NaCl, 10 mM MgCl2; 50 mM HEPES pH 7.0, 25 °C; 2 mM ligand stock titrated into 0.1 mM RNA
[14] = tested on: 18GAAA-D1 A35C (RNA, riboswitch) GGCUUCAACAACCCCGUAGGUGGGGACGAAAGUCCGCGCACCUACUGGAGCC; assay: ITC; settings: 50 mM NaCl, 10 mM MgCl2; 50 mM HEPES pH 7.0, 25 °C; 2 mM ligand stock titrated into 0.1 mM RNA
[15] = tested on: 18GAAA-D1 (NAD+ riboswitch domain 1, WT) (RNA, riboswitch) GGCUUCAACAACCCCGUAGGUGGGGACGAAAGUCAGCGCACCUACUGGAGCC; assay: ITC; settings: 50 mM NaCl, 10 mM MgCl2; for Kd: 50 mM HEPES pH 7.0, 25 °C (Figure S7 legend: 20 °C), apparent
[16] = tested on: 18GAAA-D1 A11U (RNA, riboswitch) GGCUUCAACAUCCCCGUAGGUGGGGACGAAAGUCAGCGCACCUACUGGAGCC; assay: ITC; settings: 50 mM NaCl, 10 mM MgCl2; 50 mM HEPES pH 7.0, 25 °C (Figure S7 legend: 20 °C), apparent
[17] = tested on: C13U/C14U/G36A/G38A domain 1, Ap variant (RNA, riboswitch, 2-aminopurine (position not given)) GGCUUCAACAACUUCGUAGGUGGGGACGAAAGUCAACACACCUACUGGAGCC; assay: 2-aminopurine fluorescence
[18] = tested on: 18GAAA-D1 G36C (RNA, riboswitch) GGCUUCAACAACCCCGUAGGUGGGGACGAAAGUCACCGCACCUACUGGAGCC; assay: ITC; settings: 50 mM NaCl, 10 mM MgCl2; 50 mM HEPES pH 7.0, 25 °C; 2 mM ligand stock titrated into 0.1 mM RNA
[19] = tested on: 18GAAA-D1 G36C/G38C (RNA, riboswitch) GGCUUCAACAACCCCGUAGGUGGGGACGAAAGUCACCCCACCUACUGGAGCC; assay: ITC; settings: 50 mM NaCl, 10 mM MgCl2; 50 mM HEPES pH 7.0, 25 °C; 2 mM ligand stock titrated into 0.1 mM RNA
[20] = tested on: 18GAAA-D1 G38C (RNA, riboswitch) GGCUUCAACAACCCCGUAGGUGGGGACGAAAGUCAGCCCACCUACUGGAGCC; assay: ITC; settings: 50 mM NaCl, 10 mM MgCl2; 50 mM HEPES pH 7.0, 25 °C; 2 mM ligand stock titrated into 0.1 mM RNA
[21] = tested on: 18GAAA-D1 C6G/G47C (RNA, riboswitch) GGCUUGAACAACCCCGUAGGUGGGGACGAAAGUCAGCGCACCUACUCGAGCC; assay: ITC; settings: 50 mM NaCl, 10 mM MgCl2; 50 mM HEPES pH 7.0, 25 °C; 2 mM ligand stock titrated into 0.1 mM RNA
[22] = tested on: U11Ap domain 2 (RNA, riboswitch, 2-aminopurine at 11) GGUUUCAACAUCCCCGUUCGGCGCUCGAAAGAGGUGGCCGGACUGAAGCC; assay: 2-aminopurine fluorescence titration; settings: 100 mM KCl, 50 mM MgCl2; 50 mM KMOPS pH 7.5, 20 °C, 0.5 μM RNA, apparent
[23] = tested on: A11Ap domain 1 (RNA, riboswitch, 2-aminopurine at 11) GGCUUCAACAACCCCGUAGGUGGGGACGAAAGUCAGCGCACCUACUGGAGCC; assay: 2-aminopurine fluorescence titration; settings: 100 mM KCl, 50 mM MgCl2; 50 mM KMOPS pH 7.5, 20 °C, 0.5 μM RNA, apparent

- binding [1]: no
- binding [2]: yes
- binding [3]: no
- binding [4]: no
- binding [5]: no
- binding [6]: no
- binding [7]: yes
- binding [8]: yes
- binding [9]: yes
- binding [10]: no
- binding [11]: no
- binding [12]: no
- binding [13]: no
- binding [14]: no
- Kd [15]: 127 ± 9.5 µM
- Kd [16]: 111 ± 24.6 µM
- binding [17]: no
- binding [18]: no
- binding [19]: no
- binding [20]: no
- binding [21]: no
SMILES: NC(=O)c1ccc[n+]([C@@H]2O[C@H](COP(=O)(O)OP(=O)(O)OC[C@H]3O[C@@H](n4cnc5c(N)ncnc54)[C@H](O)[C@@H]3O)[C@@H](O)[C@H]2O)c1

- binding ([15]; 50 mM HEPES pH 7.0, 25 °C, 2 mM ligand stock titrated into 0.1 mM RNA): no
SMILES: NC(=O)c1ccc[n+]([C@@H]2O[C@H](COP(=O)([O-])O)[C@@H](O)[C@H]2O)c1

More lines, now with the values behind:

SMILES: Nc1ncnc2c1ncn2[C@@H]1O[C@H](COP(=O)(O)OP(=O)(O)O)[C@@H](O)[C@H]1O
- KD^ADP [22]: 3400 ± 500 µM
- binding [2]: yes
- KD^ADP [23]: 94 ± 3 µM
- Kd [15]: 95.3 ± 0.3 µM

SMILES: NC(=O)C1=CN([C@@H]2O[C@H](COP(=O)(O)OP(=O)(O)OC[C@H]3O[C@@H](n4cnc5c(N)ncnc54)[C@H](O)[C@@H]3O)[C@@H](O)[C@H]2O)C=CC1
- Kd [15]: 305 ± 46.4 µM

SMILES: Nc1ncnc2c1ncn2[C@@H]1O[C@H](COP(=O)(O)OP(=O)(O)OP(=O)(O)O)[C@@H](O)[C@H]1O
- Kd [15]: 90.2 ± 8.6 µM
